{"source": "patent US11564913B2", "about": "“Compositions and methods for treating cancer” (Children's Hospital Medical Center, priority 2019, dated 2023)", "system": "MDA-MB-231 cells", "experiment": "Spheroid formation, hanging drop method", "format": "cell-based, human", "settings": "before trituration", "procedure": "FIG. 6: IODVA1 inhibits cell-substratum and cell-cell interactions. (A) IODVA1 impedes spreading of MCF7 and MDA-MB-231 cells on fibronectin. MCF7, T47D, and MDA-MB-231 cells were incubated on fibronectin coated coverslips for 10 min, then further incubated with the indicated concentrations of IODVA1 for 30 min in serum-free media, fixed and observed by bright field microscopy. Areas of single cells were calculated from 6 random fields (no less than 300 cells total per treatment group). Results shown are mean±s.e.m. of a single experiment and are representative of three independent experiments. (B) Effects of IODVA1 treatment on spheroid formation in MCF10A, MCF7, T47D, and MDA-MB-231 cells. […] Aggregates and spheroids were dissociated with accutase and trituration, and the number of live cells was determined by trypan blue exclusion. […]\nSpheroids were formed by the hanging drop method or using ultra-low attachment (ULA) plates (Corning). […] Spheroid formation was monitored daily and imaged using EVOS microscope (Life Technologies). For assessment of attachment-free proliferation, the contents of the well were transferred into an Eppendorf tube, centrifuged at 100×g for 5 min, dissociated into a single cell suspension using trituration and Accutase (Invitrogen) treatment at room temperature and counted using trypan blue exclusion."}
{"smiles": "OC1(c2ccccn2)N=C(Nc2nc3ccccc3[nH]2)N=C1c1ccccn1", "note": "(stereo not shown) [IODVA1, (Z)-2-((1H-benzo[d]imidazol-2-yl)imino)-4,5-di(pyridin-2-yl)-2,5-dihydro-1H-imidazol-5-ol]", "values": [{"measurement": "aggregate formation", "result": "not affected"}]}
